Reference: PubChem BioAssay AID2060600 (Molecular Pharmacology Branch, DTP, NCI, 2025)

Tested on: 996289-038-R-J1-PDC complex spheroid viability
Assay: Anticancer human tumor 996289-038-R-J1-PDC patient-derived colon adenocarcinoma cell line growth inhibition [CLK]
Settings: for IC50: curve of first compound; for viability, T/C: stronger effect = lower value
From the text: A high-throughput screen of multi-cell type tumor spheroids was designed to identify active combinations of […] and targeted small molecules. Complex spheroids include a stromal component modeled by human endothelial cells (HUVEC) and fibroblasts modeled by human mesenchymal stem cells (MSCs). The concentration ranges selected for each drug and investigational agent were based upon clinically achievable concentrations if the clinical Cmax of the agent was known.
Compounds. The drugs and investigational agents: cirtuvivint (SM08502; NSC835563), CC-671 (NSC850746), vemurafenib (NSC761431), tapotoclax (NSC804041), sotorasib (NSC818433), adagrasib (NSC831453), MRTX-1133 (NSC836407), BAY2416964 (NSC825713), copanlisib (NSC816437), inavolisib (NSC800729), abemaciclib (NSC768073), osimertinib (NSC779217), entinostat (NSC756642), eltanexor (KPT-8602, NSC794443), venetoclax (NSC766270), ceralasertib (NSC777638), bortezomib (NSC756655), olaparib (NSC753686), talazoparib (NSC767125), alisertib (NSC759677), peposertib (NSC802822), gemcitabine (NSC613327), 5-fluorouracil (NSC19893), SN-38 (NSC673596), oxaliplatin (NSC266046), paclitaxel (NSC125973), and doxorubicin (NSC123127), were obtained from the National Cancer Institute (NCI) Developmental Therapeutics Program Chemical Repository. The FDA-approved anticancer drug set is available from the Developmental Therapeutics Program at https://dtp.cancer.gov/organization/dscb/obtaining/available plates.htm. […] The stock solutions were prepared in dimethyl sulfoxide (DMSO, Sigma-Aldrich, St. Louis, MO, cat. D2650), except for the platinum complexes which were prepared in saline (Quality Biological, Gaithersburg, MD, cat. 114-055-101), at 800-fold the tested concentration and stored at -70 degrees C prior to their use. All drugs and investigational agents were tested over a range starting from a high concentration at or near the clinical Cmax and decreasing in half-log increments. If the clinical Cmax for an agent had not been determined, the highest concentration tested was 10 microM.
Cell Culture. All cells were maintained in an incubator at 37 degrees C and 5% CO2 with 95% humidity. The PDC lines were cultured according to standard operating procedures established by the NCI PDMR. Briefly, all PDCs were thawed and cultured in Matrigel-coated flasks prepared with a working solution of 1X Ham's F-12 nutrient mix, without supplementation (Invitrogen, Waltham, MA, cat. 11765054), 100 U/mL penicillin-streptomycin (Invitrogen, cat. 15140122), and 2.5% Matrigel (Corning Inc., Corning, NY, cat. 354248) for the first three passages. The 947758-054-R-J2-PDC line was cultured in 6B/Colon 1A media, which includes advanced DMEM/F-12 (Thermo Fisher Scientific, cat. 12634028), 10 mM HEPES (Thermo Fisher Scientific, cat. 15630080), 1X GlutaMAX supplement (Thermo Fisher Scientific, cat. 35050061), 0.1 mg/mL primocin (InvivoGen, cat. ant-pm-2), 10% defined fetal bovine serum, heat inactivated (HyClone Laboratories Inc., cat. SH30070.03HI), 1.25 mM N-Acetyl-L-cysteine (Sigma-Aldrich, cat. A9165), 10 mM nicotinamide (Sigma-Aldrich, cat. N0636), 1X B-27 supplement (Thermo Fisher Scientific, cat. 17504044), 1X N-2 supplement (Thermo Fisher Scientific, cat. 17502048), and 10 microM Y-27632 dihydrochloride (Tocris Bioscience, cat. 1254). The 876862-298-R-J1-PDC was cultured in 6E media, which includes all 6B/Colon 1A media components plus 50% L-WRN conditioned media (ATCC, cat. CRL-3276), 50 ng/mL recombinant human EGF recombinant protein (hEGF; Thermo Fisher Scientific, cat. PHG0311), 10 ng/mL recombinant human fibroblast growth factor 10 (hGFG-10; PeproTech, cat. 100-26), 1 ng/mL recombinant human fibroblast growth factor 2 (hFGF-2; PeproTech, cat. 100-18B), and 1 µM prostaglandin E2 (PGE2; Tocris, cat. 2296). The 227483-062-R1-J1-PDC line was cultured in Panc media, containing all 6E components except hFGF-2, with the addition of 500 nM SB-431542 (Selleckchem, cat. S1067) and 10 nM gastrin (Tocris, cat. 3006). […]
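Further: spheroids exposed to the agents for 7 days before readout.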

In the case of COC1C=CCC(C)C(C)S(=O)(=O)NC(=O)c2ccc3c(c2)N(CC2CCC21)CC1(CCCc2cc(Cl)ccc21)CO3 (configuration not stated) + CN1CCN(c2cc(C(=O)Nc3cc4cc(-c5cnn(C)c5)ccc4cn3)ccn2)CC1, the IC50 (second compound 0.0316 µM) is reported as 4.53 µM, the IC50 (second compound 0.1 µM) is reported as 2.78 µM and the IC50 (second compound 0.316 µM) is reported as 1.47 µM. For the same compound, the IC50 (second compound 1 µM) was < 0.0316 µM, the IC50 (second compound 3.16 µM) was < 0.0316 µM and the IC50 (second compound 10 µM) was < 0.0316 µM. For the same compound, the viability, T/C (second compound 0.0316 µM, first compound 0.0316 µM) was 98.8%, the viability, T/C (second compound 0.0316 µM, first compound 0.1 µM) was 106% and the viability, T/C (second compound 0.0316 µM, first compound 0.316 µM) was 96.2%. The viability, T/C (second compound 0.0316 µM, first compound 1 µM) was 79.5%, the viability, T/C (second compound 0.0316 µM, first compound 3.16 µM) was 60.4% and the viability, T/C (second compound 0.0316 µM, first compound 10 µM) was 30.1%. The viability, T/C (second compound 0.1 µM, first compound 0.0316 µM) was 93.3%, the viability, T/C (second compound 0.1 µM, first compound 0.1 µM) was 86.1% and the viability, T/C (second compound 0.1 µM, first compound 0.316 µM) was 78.8%. The viability, T/C (second compound 0.1 µM, first compound 1 µM) was 78%, the viability, T/C (second compound 0.1 µM, first compound 3.16 µM) was 45.6% and the viability, T/C (second compound 0.1 µM, first compound 10 µM) was 27.7%. The viability, T/C (second compound 0.316 µM, first compound 0.0316 µM) was 60.6%, the viability, T/C (second compound 0.316 µM, first compound 0.1 µM) was 74.7% and the viability, T/C (second compound 0.316 µM, first compound 0.316 µM) was 63.6%. It also gave a viability, T/C (second compound 0.316 µM, first compound 1 µM) of 53.9%, a viability, T/C (second compound 0.316 µM, first compound 3.16 µM) of 39.6% and a viability, T/C (second compound 0.316 µM, first compound 10 µM) of 21%. For the same compound, the viability, T/C (second compound 1 µM, first compound 0.0316 µM) was 7.76%, the viability, T/C (second compound 1 µM, first compound 0.1 µM) was 8.39% and the viability, T/C (second compound 1 µM, first compound 0.316 µM) was 6.69%. It also gave a viability, T/C (second compound 1 µM, first compound 1 µM) of 4.97%, a viability, T/C (second compound 1 µM, first compound 3.16 µM) of 4.86% and a viability, T/C (second compound 1 µM, first compound 10 µM) of 2.21%. The viability, T/C (second compound 3.16 µM, first compound 0.0316 µM) was 1.75%, the viability, T/C (second compound 3.16 µM, first compound 0.1 µM) was 0.92% and the viability, T/C (second compound 3.16 µM, first compound 0.316 µM) was 1.25%. For the same compound, the viability, T/C (second compound 3.16 µM, first compound 1 µM) was 1.45%, the viability, T/C (second compound 3.16 µM, first compound 3.16 µM) was 1.53% and the viability, T/C (second compound 3.16 µM, first compound 10 µM) was 0.93%. It also gave a viability, T/C (second compound 10 µM, first compound 0.0316 µM) of 1.98%, a viability, T/C (second compound 10 µM, first compound 0.1 µM) of 1.21% and a viability, T/C (second compound 10 µM, first compound 0.316 µM) of 0.68%. It also gave a viability, T/C (second compound 10 µM, first compound 1 µM) of 0.74%, a viability, T/C (second compound 10 µM, first compound 3.16 µM) of 0.47% and a viability, T/C (second compound 10 µM, first compound 10 µM) of 1.7%.
